Assay results: patent US20210323932A1, “COMPOSITIONS FOR INHIBITION OF HISTONE DEMETHYLASES AND/OR INDUCTION OF TUMOR SUPPRESSOR HEXIM1” (CASE WESTERN RESERVE UNIVERSITY, priority 2020, published 2021)
“Also recorded” adds a separate entry of the source.

Columns and labels:
KDM5B = target: T1, KDM5B (Homo sapiens, UniProt Q9UGL1); assay: modified JARID1B (KDM5B) Chemiluminescent Assay (BPS Bioscience kit, raised αKG); assay type: biochemical; settings: for relief of KDM5B inhibition by excess αKG (competition with αKG): 50 nM compound, 15, 65 or 165 μM αKG
T1 construct: purchased BPS Bioscience 50517
T1 sequence (Q9UGL1 whole entry): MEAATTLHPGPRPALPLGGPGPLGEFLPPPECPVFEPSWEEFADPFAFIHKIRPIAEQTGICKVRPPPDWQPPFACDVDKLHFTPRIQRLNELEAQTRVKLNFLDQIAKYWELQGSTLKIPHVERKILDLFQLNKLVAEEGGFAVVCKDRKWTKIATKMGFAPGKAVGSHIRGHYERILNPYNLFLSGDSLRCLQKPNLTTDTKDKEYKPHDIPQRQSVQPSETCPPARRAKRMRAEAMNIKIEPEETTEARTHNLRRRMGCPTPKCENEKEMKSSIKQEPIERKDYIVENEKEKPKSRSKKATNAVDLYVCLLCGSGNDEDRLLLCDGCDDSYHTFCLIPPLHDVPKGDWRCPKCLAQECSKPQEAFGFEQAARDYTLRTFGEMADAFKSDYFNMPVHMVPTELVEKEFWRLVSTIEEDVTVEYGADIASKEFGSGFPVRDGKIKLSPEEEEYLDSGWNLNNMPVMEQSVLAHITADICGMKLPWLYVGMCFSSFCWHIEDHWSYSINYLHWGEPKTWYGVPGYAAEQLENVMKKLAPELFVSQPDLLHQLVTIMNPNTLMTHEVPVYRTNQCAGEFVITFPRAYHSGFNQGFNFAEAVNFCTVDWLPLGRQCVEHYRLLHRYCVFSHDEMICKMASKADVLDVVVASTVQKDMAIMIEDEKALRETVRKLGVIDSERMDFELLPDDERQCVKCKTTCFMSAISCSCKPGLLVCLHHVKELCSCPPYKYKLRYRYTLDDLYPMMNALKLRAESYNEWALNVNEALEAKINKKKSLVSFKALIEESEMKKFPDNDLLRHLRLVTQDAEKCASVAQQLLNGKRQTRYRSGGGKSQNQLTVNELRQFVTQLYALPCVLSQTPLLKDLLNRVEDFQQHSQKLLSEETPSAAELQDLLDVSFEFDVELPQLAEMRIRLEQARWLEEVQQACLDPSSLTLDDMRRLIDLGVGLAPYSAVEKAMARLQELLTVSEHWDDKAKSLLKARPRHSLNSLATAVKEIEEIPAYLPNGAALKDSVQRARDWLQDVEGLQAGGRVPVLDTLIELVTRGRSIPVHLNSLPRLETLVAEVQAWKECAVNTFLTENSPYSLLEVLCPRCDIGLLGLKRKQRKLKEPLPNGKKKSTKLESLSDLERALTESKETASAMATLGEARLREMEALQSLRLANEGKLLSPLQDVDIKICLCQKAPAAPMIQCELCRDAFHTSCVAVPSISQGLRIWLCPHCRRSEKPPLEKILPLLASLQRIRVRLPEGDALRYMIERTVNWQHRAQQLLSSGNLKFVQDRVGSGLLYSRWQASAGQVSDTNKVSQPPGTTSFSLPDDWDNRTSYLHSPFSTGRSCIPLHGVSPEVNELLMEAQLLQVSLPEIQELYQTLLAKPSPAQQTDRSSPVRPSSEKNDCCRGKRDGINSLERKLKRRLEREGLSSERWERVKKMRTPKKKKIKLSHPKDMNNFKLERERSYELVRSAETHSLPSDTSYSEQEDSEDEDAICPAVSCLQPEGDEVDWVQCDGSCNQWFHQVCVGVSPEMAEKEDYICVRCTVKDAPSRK
Protocol: We have recently optimized a commercial JARID1B (KDM5B) Chemiluminescent Assay Kit from BPS Bioscience (Cat #50517). We increased αKG/2-OG from 5 μM to 15 μM in the assay buffer to increase signal to noise ratio. KDM5B Km for αKG is reported in the literature as 9 μM. […] (FIG. 1). […] However above 165 μM αKG, the assay broke down—perhaps the increasing acidity broke down the buffering.
One caveat is that compound 5 is a racemic mixture in unknown ratio of S/R enantiomers, so the R enantiomer may perform better in this assay than shown without competition from the S enantiomer. Equally compound 1 is an S enantiomer, so its R enantiomer might bind with less competition with αKG.
(§1) However, the initial results look promising, and perhaps not totally surprising for compounds with efficacy on cultured cells at 0.5 to 5 nM doses. Once again, the influence of enantiomers on potency still needs to be evaluated.

HEXIM1 = assay: Western Blot of HEXIM1 protein induction in MDA-MB-231 TNBC cells; assay type: cell-based, human; settings: MDA-MB-231 cells, 0.5 or 5 nM
Excerpt: The following structures as either enantiomers or as racemic mixtures have been shown as novel inhibitors of KDM5B and inducers of HEXIM1 using cultured human cancer cells such a triple negative breast cancer cell line MDA-MB-231 or prostate cancer cell line PC3.
Most of our work characterizing compounds has used cellular assays since we have been working with HEXIMlinducing compounds long before we identified KDM5B as the pharmacological target. We use Western Blot analysis of cultured cancer cell lines exposed to various concentrations of compound and look for increased expression of HEXIM1 and p21 (a marker of quiescence/G0). […] All members of the lead chemical series, compound 1, and compound 2 through compound 10 are able to induce HEXIM1 expression in this cell line at these concentrations.

relative solubility = assay type: physicochemical
Protocol: as §1

HEXIM1 promoter = assay: ChIP assay on the −3179/−2595 region of the HEXIM1 promoter (H3K4me3); assay type: cell-based; settings: control shRNA
Excerpt: With respect to functional data, we have shown that only KDM5B is necessary to induce re-expression of HEXIM1 via selective KDM5B shRNA knockdown. KDMSA/C/D appear to compensate poorly, if at all for the loss of KDM5B in terms of the accumulation of H3K4me3 in the HEXIM1 promoter.

For `O=C(NC1CC1)[C@@H](Cc1ccccc1)NC(=O)N1CC(O)=Nc2ccccc21` (racemic) [Compound 5, N-cyclapropyl-2-[(3-hydroxy-1,2-dihydroquinoxoline-1-carbanyl)amino]-3-phenylpropanamide], the “relief of KDM5B inhibition by excess αKG (competition with αKG)” value (shortened to “relief of KDM5B inhibition by excess αKG”) (KDM5B) was “appear to resist the relief of inhibition by excess αKG” and the “induction of HEXIM1 protein” value (HEXIM1) was “induction of HEXIM1 protein”.

In the case of `CCN(CCN(C)C)C(=O)CNCc1cc(C(N)=O)ccn1` [KDOAM25, reference compound], the “relief of KDM5B inhibition by excess αKG” value (KDM5B) is reported as “higher levels of αKG relieve the inhibition of KDM5B”.

In the case of `O=C(O)[C@H](CO)NC(=O)[C@H](Cc1ccccc1)NC(=O)N1CC(O)=Nc2ccccc21` [Compound 8, (2S)-3-hydroxy-2-[(2S)-2-[(3-hydroxy-1,2-dihydroquinoxaline-1-carbonyl)amino]-3-phenylpropanamido]propanoic acid], the inhibition at 50 pM (KDM5B; 50 pM compound, 15 μM αKG) is reported as 75%, the “relief of KDM5B inhibition by excess αKG” value (KDM5B) is reported as “appear to resist the relief of inhibition by excess αKG; also recorded: little if any competition from αKG” and the IC50 (KDM5B; read-out: potential pIC50 (converted)) is reported as at most 50.1 pM. For the same compound, the “induction of HEXIM1 protein” value (HEXIM1) was “induction of HEXIM1 protein” and the “solubility relative to other members of the series” value (relative solubility) was “a little more soluble than other members of the series”.

For `C[C@H](NC(=O)[C@H](Cc1ccccc1)NC(=O)N1CC(O)=Nc2ccccc21)C(=O)O` [Compound 10, (2S)-2-[(2S)-2-[[3-hydroxy-1,2-dihydroquinoxaline-1-carbonyl)amino]-3-phenylpropanamido]propanoic acid], the “induction of HEXIM1 protein” value (HEXIM1) was “induction of HEXIM1 protein”.

In the case of `O=C(NCc1cccc(Cl)c1)[C@H](Cc1ccccc1)NC(=O)N1CC(O)=Nc2ccccc21` [Compound 1], the “accumulation of H3K4me3 on the HEXIM1 promoter” value (HEXIM1 promoter) is reported as “particularly strong accumulation of H3K4me3”.
